This passage reports IC50 results from patent publication US20230374015A1, “INHIBITORS OF FIBROBLAST GROWTH FACTOR RECEPTOR KINASES” (Kinnate Biopharma Inc., priority 2020, published 2023).

The experiment deals with FGFR2 (Homo sapiens, UniProt P21802). Description: FGFR2 Kinase Protocol - Condition 2 (Reaction Biology HotSpot radiometric kinase assay, no preincubation). It is filed as biochemical. The conditions noted are these: poly[Glu:Tyr] (4:1) 0.2 mg/ml, ATP 100 microM, 2 hr room temperature. The method, boiled down: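 Radiometric HotSpot format: FGFR2 (wildtype or V564F) with poly[Glu:Tyr] (4:1) at 0.2 mg/ml in HEPES pH 7.5 buffer with 1% DMSO; ATP plus [γ33P]ATP at 100 µM total, added without preincubation. Reactions ran 2 hr at room temperature, then filter-bound. IC50 from 10-dose, 3-fold series versus DMSO control.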

Some results are limits rather than exact numbers.

FGFR2, sequence (P21802 22-821): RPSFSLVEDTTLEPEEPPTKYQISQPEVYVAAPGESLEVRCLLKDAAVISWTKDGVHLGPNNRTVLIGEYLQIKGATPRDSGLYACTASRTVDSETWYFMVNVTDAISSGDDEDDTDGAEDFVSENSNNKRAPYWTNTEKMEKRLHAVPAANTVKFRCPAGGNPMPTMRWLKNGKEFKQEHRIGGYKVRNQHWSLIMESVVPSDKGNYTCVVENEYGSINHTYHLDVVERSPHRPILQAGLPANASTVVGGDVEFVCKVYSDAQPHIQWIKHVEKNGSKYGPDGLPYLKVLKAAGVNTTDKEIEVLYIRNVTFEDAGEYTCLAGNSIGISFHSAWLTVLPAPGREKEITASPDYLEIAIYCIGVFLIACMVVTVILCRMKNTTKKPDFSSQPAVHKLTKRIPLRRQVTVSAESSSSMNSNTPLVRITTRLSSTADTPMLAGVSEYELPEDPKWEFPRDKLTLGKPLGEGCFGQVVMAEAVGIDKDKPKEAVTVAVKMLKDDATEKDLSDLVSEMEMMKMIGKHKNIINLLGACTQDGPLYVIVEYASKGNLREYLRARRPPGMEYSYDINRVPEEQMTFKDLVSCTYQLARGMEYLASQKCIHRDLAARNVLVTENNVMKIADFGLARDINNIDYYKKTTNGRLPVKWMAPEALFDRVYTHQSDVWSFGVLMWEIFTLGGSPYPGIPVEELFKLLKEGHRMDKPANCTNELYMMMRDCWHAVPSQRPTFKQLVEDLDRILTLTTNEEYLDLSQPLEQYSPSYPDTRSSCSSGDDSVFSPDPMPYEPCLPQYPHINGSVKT

On to `C=CC(=O)N1CC[C@H](n2nc(C#Cc3cc4ncn(C)c4c(F)c3F)c3c(N)nccc32)C1` [Example 156, 1-[(3S)-3-{4-Amino-3-[2-(6,7-difluoro-1-methyl-1,3-benzodiazol-5-yl)ethynyl]pyrazolo[4,3-c]pyridin-1-yl}pyrrolidin-1-yl]prop-2-en-1-one], for which the IC50 is ≤ 100 nM. As for `C=CC(=O)N1C[C@@H](n2nc(C#Cc3cc4ncn(C)c4c(F)c3F)c3c(N)nccc32)C[C@@H]1CC#N` [Example 159, 2-((2R,4S)-1-Acryloyl-4-(4-amino-3-((6,7-difluoro-1-methyl-1H-benzo[d]imidazol-5-yl)ethynyl)-1H-pyrazolo[4,3-c]pyridin-1-yl)pyrrolidin-2-yl)acetonitrile], the figure is ≤ 100 nM; as for `C=CC(=O)N1C[C@@H](n2nc(C#Cc3ccc4c(cnn4CC)c3)c3c(N)nccc32)C[C@@H]1COC` [Example 37, 1-((2R,4S)-4-(4-amino-3-((1-ethyl-1H-indazol-5-yl)ethynyl)-1H-pyrazolo[4,3-c]pyridin-1-yl)-2-(methoxymethyl)pyrrolidin-1-yl)prop-2-en-1-one], ≤ 100 nM; as for `C=CC(=O)N1C[C@@H](n2nc(C#Cc3cc4ncn(C)c4cc3F)c3c(N)nccc32)C[C@@H]1CF` [Example 185, 1-[(2R,4S)-4-{4-Amino-3-[2-(6-fluoro-1-methyl-1,3-benzodiazol-5-yl)ethynyl]pyrazolo[4,3-c]pyridin-1-yl}-2-(fluoromethyl)pyrrolidin-1-yl]prop-2-en-1-one], ≤ 100 nM. For the compound `C=CC(=O)N1C[C@@H](n2nc(C#Cc3c(F)cc4c(nc(C)n4C)c3F)c3c(N)nccc32)C[C@@H]1CC#N` [Example 39, 2-((2R,4S)-1-acryloyl-4-(4-amino-3-((4,6-difluoro-1,2-dimethyl-1H-benzo[d]imidazol-5-yl)ethynyl)-1H-pyrazolo[4,3-c]pyridin-1-yl)pyrrolidin-2-yl)acetonitrile], the IC50 was ≤ 100 nM.

Regarding `C=CC(=O)N1C[C@@H](n2nc(C#Cc3ccc4c(c3)nc(C)n4C)c3c(N)nccc32)C[C@@H]1CC#N` [Example 43, 2-((2R,4S)-1-acryloyl-4-(4-amino-3-((1,2-dimethyl-1H-benzo[d]imidazol-5-yl)ethynyl)-1H-pyrazolo[4,3-c]pyridin-1-yl)pyrrolidin-2-yl)acetonitrile], the IC50 is ≤ 100 nM.

For `C=CC(=O)N1C[C@@H](n2cc(C#Cc3c(F)cc4c(ncn4C(F)F)c3F)c3c(N)ncnc32)C[C@@H]1COC` [Example 69, 1-[(2R,4S)-4-(4-Amino-5-[2-[1-(difluoromethyl)-4,6-difluoro-1,3-benzodiazol-5-yl]ethynyl]pyrrolo[2,3-d]pyrimidin-7-yl)-2-(methoxymethyl)pyrrolidin-1-yl]prop-2-en-1-one], the IC50 is ≤ 100 nM. Turning to `C=CC(=O)N1C[C@@H](n2nc(C#Cc3cc4ncn(C)c4cc3Cl)c3c(N)nccc32)C[C@@H]1COC` [Example 98, 1-[(2R,4S)-4-[4-Amino-3-[2-(6-chloro-1-methyl-1,3-benzodiazol-5-yl)ethynyl]pyrazolo[4,3-c]pyridin-1-yl]-2-(methoxymethyl)pyrrolidin-1-yl]prop-2-en-1-one], the IC50 was ≤ 100 nM. As for `C=CC(=O)N1CC[C@H](n2nc(C#Cc3cc4ncn(C)c4c(F)c3Cl)c3c(N)ncnc32)C1` [Example 145, (S)-1-(3-(4-Amino-3-((6-chloro-7-fluoro-1-methyl-1H-benzo[d]imidazol-5-yl)ethynyl)-1H-pyrazolo[3,4-d]pyrimidin-1-yl)pyrrolidin-1-yl)prop-2-en-1-one], the figure is ≤ 100 nM.

Turning to `C=CC(=O)N1CC[C@H](n2nc(C#Cc3cc4ncn(CC)c4cc3Cl)c3c(N)ncnc32)C1` [Example 132, 1-[(3S)-3-{4-Amino-3-[2-(6-chloro-1-ethyl-1,3-benzodiazol-5-yl)ethynyl]pyrazolo[3,4-d]pyrimidin-1-yl}pyrrolidin-1-yl]prop-2-en-1-one], the IC50 is ≤ 100 nM.

As to `C=CC(=O)N1C[C@@H](n2nc(C#Cc3cc4nccn4cc3F)c3c(N)ncnc32)C[C@@H]1COC` [Example 124, 1-((2R,4S)-4-(4-Amino-3-((6-fluoroimidazo[1,2-a]pyridin-7-yl)ethynyl)-1H-pyrazolo[3,4-d]pyrimidin-1-yl)-2-(methoxymethyl)pyrrolidin-1-yl)prop-2-en-1-one], the IC50 is ≤ 100 nM. `C=CC(=O)N1C[C@@H](n2nc(C#Cc3cc4ncn(C5CC5)c4cc3Cl)c3c(N)ncnc32)C[C@@H]1COC` [Example 126, 1-[(2R,4S)-4-[4-Amino-3-[2-(6-chloro-1-cyclopropyl-1,3-benzodiazol-5-yl)ethynyl]pyrazolo[3,4-d]pyrimidin-1-yl]-2-(methoxymethyl)pyrrolidin-1-yl]prop-2-en-1-one]: the IC50 is ≤ 100 nM. Turning to `C=CC(=O)N1C[C@@H](n2nc(C#Cc3cc4ncn(CC)c4cc3Cl)c3c(N)nccc32)C[C@@H]1COC` [Example 88, 1-[(2R,4S)-4-[4-Amino-3-[2-(6-chloro-1-ethyl-1,3-benzodiazol-5-yl)ethynyl]pyrazolo[4,3-c]pyridin-1-yl]-2-(methoxymethyl)pyrrolidin-1-yl]prop-2-en-1-one], the 50% inhibitory concentration (IC50) is ≤ 100 nM. Consider `C=CC(=O)N1C[C@@H](n2nc(C#Cc3ccc4c(c3)ncn4C)c3c(N)ncnc32)C[C@@H]1COC(F)(F)F` [Example 56, 1-((2R,4S)-4-(4-Amino-3-((1-methyl-1H-benzo[d]imidazol-5-yl)ethynyl)-1H-pyrazolo[3,4-d]pyrimidin-1-yl)-2-((trifluoromethoxy)methyl)pyrrolidin-1-yl)prop-2-en-1-one], for which the IC50 is ≤ 100 nM. In the case of `C=CC(=O)N1C[C@@H](n2nc(C#Cc3c(F)cc4c(ncn4C(F)F)c3F)c3c(N)nccc32)C[C@@H]1COC` [Example 65, 1-[(2R,4S)-4-(4-Amino-3-[2-[1-(difluoromethyl)-4,6-difluoro-1,3-benzodiazol-5-yl]ethynyl]pyrazolo[4,3-c]pyridin-1-yl)-2-(methoxymethyl)pyrrolidin-1-yl]prop-2-en-1-one], the IC50 is ≤ 100 nM. In the case of `C=CC(=O)N1C[C@@H](n2cc(C#Cc3cc4ncn(C)c4cc3Cl)c3c(N)ncnc32)C[C@@H]1COC` [Example 91, 1-[(2R,4S)-4-[4-Amino-5-[2-(6-chloro-1-methyl-1,3-benzodiazol-5-yl)ethynyl]pyrrolo[2,3-d]pyrimidin-7-yl]-2-(methoxymethyl)pyrrolidin-1-yl]prop-2-en-1-one], the IC50 was ≤ 100 nM. Turning to `C=CC(=O)N1C[C@@H](n2nc(C#Cc3cc4ncn(C5CC5)c4cc3F)c3c(N)nccc32)C[C@@H]1C(F)F` [Example 182, 1-((2R,4S)-4-(4-amino-3-((1-cyclopropyl-6-fluoro-1H-benzo[d]imidazol-5-yl)ethynyl)-1H-pyrazolo[4,3-c]pyridin-1-yl)-2-(difluoromethyl)pyrrolidin-1-yl)prop-2-en-1-one], the IC50 is ≤ 100 nM. The figure for `C=CC(=O)N1C[C@@H](n2cc(C#Cc3c(F)cc4[nH]c(C)nc4c3F)c3c(N)ncnc32)C[C@@H]1COC` [Example 107, 1-[(2R,4S)-4-[4-Amino-5-[2-(4,6-difluoro-2-methyl-1H-1,3-benzodiazol-5-yl)ethynyl]pyrrolo[2,3-d]pyrimidin-7-yl]-2-(methoxymethyl)pyrrolidin-1-yl]prop-2-en-1-one] is ≤ 100 nM; for `C=CC(=O)N1CC[C@H](n2nc(C#Cc3cc4ncn(C5CC5)c4c(F)c3F)c3c(N)ncnc32)C1` [Example 194, 1-[(3S)-3-{4-Amino-3-[2-(1-cyclopropyl-6,7-difluoro-1,3-benzodiazol-5-yl)ethynyl]pyrazolo[3,4-d]pyrimidin-1-yl}pyrrolidin-1-yl]prop-2-en-1-one] it is ≤ 100 nM. Turning to `C=CC(=O)N1C[C@@H](n2nc(C#Cc3cc4ncn(C)c4c(F)c3F)c3c(N)ncnc32)C[C@@H]1CC#N` [Example 158, 2-[(2R,4S)-4-{4-Amino-3-[2-(6,7-difluoro-1-methyl-1,3-benzodiazol-5-yl)ethynyl]pyrazolo[3,4-d]pyrimidin-1-yl}-1-(prop-2-enoyl)pyrrolidin-2-yl]acetonitrile], the IC50 was ≤ 100 nM. Regarding `C=CC(=O)N1CC[C@H](n2cc(C#Cc3cc4ncn(C)c4cc3F)c3c(N)ncnc32)C1` [Example 142, (S)-1-(3-(4-Amino-5-((6-fluoro-1-methyl-1H-benzo[d]imidazol-5-yl)ethynyl)-7H-pyrrolo[2,3-d]pyrimidin-7-yl)pyrrolidin-1-yl)prop-2-en-1-one], the IC50 was ≤ 100 nM. Regarding `C=CC(=O)N1C[C@@H](n2nc(C#Cc3c(F)cc4c(ncn4CC)c3F)c3c(N)ncnc32)C[C@@H]1COC(F)(F)F` [Example 70, 1-((2R,4S)-4-(4-Amino-3-((1-ethyl-4,6-difluoro-1H-benzo[d]imidazol-5-yl)ethynyl)-1H-pyrazolo[3,4-d]pyrimidin-1-yl)-2-((trifluoromethoxy)methyl)pyrrolidin-1-yl)prop-2-en-1-one], the IC50 is ≤ 100 nM. Consider `C=CC(=O)N1C[C@@H](n2nc(C#Cc3c(F)cc4c(ncn4C)c3F)c3c(N)ncnc32)C[C@@H]1COC` [Example 55, 1-[(2R,4S)-4-[4-Amino-3-[2-(4,6-difluoro-1-methyl-1,3-benzodiazol-5-yl)ethynyl]pyrazolo[3,4-d]pyrimidin-1-yl]-2-(methoxymethyl)pyrrolidin-1-yl] prop-2-en-1-one], for which the IC50 was ≤ 100 nM. With `C=CC(=O)N1C[C@@H](n2nc(C#Cc3ccc4scnc4c3)c3c(N)ncnc32)C[C@@H]1COC` [Example 112, 1-((2R,4S)-4-(4-Amino-3-(benzo[d]thiazol-5-ylethynyl)-1H-pyrazolo[3,4-d]pyrimidin-1-yl)-2-(methoxymethyl)pyrrolidin-1-yl)prop-2-en-1-one], the IC50 is ≤ 100 nM. Regarding `C=CC(=O)N1C[C@@H](n2nc(C#Cc3c(Cl)cc4c(ncn4CC)c3F)c3c(N)ncnc32)C[C@@H]1COC` [Example 116, 1-[(2R,4S)-4-[4-Amino-3-[2-(6-chloro-1-ethyl-4-fluoro-1,3-benzodiazol-5-yl)ethynyl]pyrazolo [3,4-d]pyrimidin-1-yl]-2-(methoxymethyl)pyrrolidin-1-yl]prop-2-en-1-one], the IC50 is ≤ 100 nM.
